Experiment [1] has as its system P. falciparum (NF54 or 3D7 strain) in infected human erythrocytes. Kind of experiment: Assay for P. falciparum proliferation in infected human blood cells (SYBR Green). In kind it is cell-based. The following applies: Plasmodium falciparum, Erythrocyte; NF54 or 3D7 strain, 72 hours, SYBR Green fluorescence; read-out: EC50 (nM), inhibitory efficacy in delaying P. falciparum proliferation in infected human blood cells. The method in brief:
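NF54 or 3D7 parasites in O+ human erythrocytes (final 2.5% hematocrit, 0.3% parasitemia) exposed to compound for 72 h at 37° C. under 3% O2. Cells then lysed overnight with SYBR Green I, and fluorescence read at excitation 425 nm / emission 530 nm to give EC50.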

Experiment [2] relates to P. yoelii sporozoites in HepG2-A16-CD81EGFP cells. Kind of experiment: P. yoelii sporozoite invasion assay (proliferation of parasite in infected liver cells, immunofluorescence). It counts as cell-based. The following applies: Plasmodium yoelii, 48 hours, parasite area by immunofluorescence, read-out: EC50 (nM), inhibitory efficacy by the P. yoelii sporozoite invasion assay. The text has this:
Assay for Profiferation of Parasite in Infected Liver Cells
Compounds of the invention can be assayed to measure their capacity to inhibit proliferation of parasites in liver cells. The proliferation is quantified by determine the number of infected cells by immunofluorescence.
Due to the difficulty of successfully infecting immortalized human liver cell lines with the human malaria sporozoites (liver-stage parasite), rodent malaria sporozoites from Plasmodium yoelii (17XNL) and P. berghei (ANKA) are the preferred surrogate. Sporozoites are obtained from Anopheles stephensi mosquitoes supplied by the New York University Insectary, which ships the malaria-infected mosquitoes 10-13 days following the ingestion of an infective blood meal.
A transgenic HepG2 cell line expressing the tetraspanin CD81 receptor (HepG2-A16-CD81^EGFP) is used to increase the infectivity rate of rodent-malaria sporozoites into human cells. HepG2-A16-CD81^EGFP cells are stably transformed to express a GFP-CD81 fusion protein. A continuous in vitro culture of this line was maintained at 37° C. in 4% CO2 in complete media (CM) which contains: DMEM (Invitrogen, Carlsbad, USA) supplemented with 10% FCS, 0.29 mg/ml glutamine, 100 units penicillin and 100 μg/ml streptomycin (SigmaAldrich, USA).
P. yoelii Sporozoite Invasion Assay
Twenty to twenty-six hours prior to sporozoite infection, 7.5×10^3 HepG2-A16-CD81^EGFP cells are seeded into 384-well plates (Aurora 384 IQ-EB black plates with clear bottoms; 50 μl of 1.5×10^5 cells/ml in CM). These plates are incubated at 37° C. with 4% CO2 overnight. Two hours prior to infection, 50 nl of compound dissolved in DMSO (0.1% final DMSO concentration per well) were transferred with a PinTool (GNF Systems) into the assay plates (10 μM final concentration). A 1:3 serial dilution of atovaquone (10 μM at the highest final concentration) and wells treated only with DMSO were used as positive and negative controls, respectively.
Freshly dissected salivary glands from infected mosquitoes were homogenized in a glass tissue grinder, filtered twice through Nylon cell strainers (40 μm pore size, BD Falcon) and counted using a hemocytometer. The assay plate with HepG2-A16-CD81^EGFP cells and compound were then infected with 8×10^3 sporozoitesper well and the plates are subjected to a centrifugal force of 650×g to pellet the sporozoites onto the liver cell monolayer. The assay plate is incubated at 37° C. for 2 hours to permit sporozoite invasion, then the media is aspirated from the media plate, and replaced with 50 μl CM (containing a 5× concentration of penicillin/streptomycin; 500 units penicillin and 0.5 mg streptomycin per ml) per well. 50 nl of compound is re-introduced by PinTool and the assay plate incubated for 48 hours at 37° C. before quantification of infected cells by immunofluorescence.
Atovaquone and uninfected wells were used as controls on each plate. Two replicate plates are tested for each assay.
Immunofluorescence Quantification of Exo-Erythrocytic Forms (EEFs)
After fixing the cells by addition of 12.5 μl of 20% solution of paraformaldehyde (EMS, Hatfield, USA) to each assay well (4% final formaldehyde concentration), membranes were permeabilized with 0.5% Triton-X-100 (Thermo Fisher Scientific) and EEFs were stained using a mouse polyclonal serum raised against the Plasmodium yoelii heat shock protein 70 (PyHSP70), a DyLight 649 goat anti-mouse IgG, Fc(gamma) fragment specific secondary antibody (Jackson Immuno Research, Cat#115-495-071) and the Hoechst 33342 nucleic acid dye (Invitrogen, Carlsbad, USA). Stained EEFs were then quantified using the Opera Confocal High Content Screening System (Perkin Elmer, Waltham, USA). Images were collected using a 20× objective lens (20×/0.45 NA, LWD Plan Fluor, Olympus) at a binning of 2, using a 365 nm Xeon arc lamp illumination to detect the Hoechst-labeled nuclei and 635 nm laser line to excite DyLight649-labeled parasites. […]

With `CN(C(=O)c1ccn2ncc(-c3ccc(C(N)=O)cn3)c2c1)c1ccc(C#N)cc1` [Example 27, 3-(5-carbamoylpyridin-2-yl)-N-(4-cyanophenyl)-N-methylpyrazolo[1,5-a]pyridine-5-carboxamide], the EC50 in experiment [1] was determined as 10 nM; in experiment [2], 201 nM.

For `CN(C(=O)c1ccn2ncc(-c3ccc(N)nc3)c2c1)c1ccc(C#N)cc1` [Example 41, 3-(6-aminopyridin-3-yl)-N-(4-cyanophenyl)-N-methylpyrazolo[1,5-a]pyridine-5-carboxamide], the EC50 in experiment [1] was determined as 2 nM; in experiment [2], 14.3 nM.

Turning to `CN(C(=O)c1ccn2ncc(-c3cnc4[nH]ccc4c3)c2c1)c1ccc(C#N)cc1` [Example 40, N-(4-cyanophenyl)-N-methyl-3-(1H-pyrrolo[2,3-b]pyridin-5-yl)pyrazolo[1,5-a]pyridine-5-carboxamide], the values for the EC50 in experiment [1] and in experiment [2] were 1 nM and 63.1 nM, respectively.

Regarding `CN(C(=O)c1ccn2ncc(-c3ccc(C(F)(F)F)cc3)c2c1)c1ccc(S(C)(=O)=O)cn1` [Example 34, N-methyl-N-(5-(methylsulfonyl)114yridine-2-yl)-3-(4-(trifluoromethyl)phenyl)pyrazolo[1,5-a]pyridine-5-carboxamide], the EC50 in experiment [1] was found to be 22 nM; in experiment [2], 53.2 nM.

Turning to `CN(C(=O)c1ccn2ncc(-c3ccc(C(F)(F)F)cn3)c2c1)c1ccc(C#N)cn1` [Example 25, N-(5-cyanopyridin-2-yl)-N-methyl-3-(5-(trifluoromethyl)109yridine-2-yl)pyrazolo[1,5-a]pyridine-5-carboxamide], the EC50 came out at 7 nM in experiment [1] and 229 nM in experiment [2].

On to `CNC(=O)c1ccc(-c2cnn3ccc(C(=O)N(C)c4ccc(C#N)cc4)cc23)cc1` [Example 67, N-(4-cyanophenyl)-N-methyl-3-(4-(methylcarbamoyl)phenyl)pyrazolo[1,5-a]pyridine-5-carboxamide], for which the EC50 in experiment [1] is 5 nM; in experiment [2], 4.6 nM.

Consider `CN(C(=O)c1ccn2ncc(-c3ccc(C(F)(F)F)cc3)c2c1)c1ccc(C#N)cn1` [Example 13, N-(5-cyanopyridin-2-yl)-N-methyl-3-(4-(trifluoromethyl)phenyl)pyrazolo[1,5-a]pyridine-5-carboxamide], for which the EC50 in experiment [1] was found to be 8 nM; in experiment [2], 17.9 nM.

Take `CN(C(=O)c1ccn2ncc(-c3ccc(N)nc3)c2c1)c1ccc(C#N)cn1` [Example 54, 3-(6-aminopyridin-3-yl)-N-(5-cyanopyridin-2-yl)-N-methylpyrazolo[1,5-a]pyridine-5-carboxamide]: the EC50 in experiment [1] stood at 9 nM; in experiment [2], 79 nM.

On to `CN(C(=O)c1ccn2ncc(-c3ccc(C(N)=O)cc3)c2c1)c1ccc(C#N)cn1` [Example 32, 3-(4-carbamoylphenyl)-N-(5-cyanopyridin-2-yl)-N-methylpyrazolo[1,5-a]pyridine-5-carboxamide], for which the results for the EC50 in experiment [1] and in experiment [2] were 1 nM and 8 nM, respectively.

Turning to `CN(C(=O)c1ccn2ncc(-c3ccc(C(F)(F)F)cc3)c2c1)c1ccc(C#N)cc1` [Example 1, N-(4-cyanophenyl)-N-methyl-3-(4-(trifluoromethyl)phenyl)pyrazolo[1,5-a]pyridine-5-carboxamide], the EC50 in experiment [1] is 8 nM; in experiment [2], 7.3 nM.

Consider `CNC(=O)c1ccc(-c2cnn3ccc(C(=O)N(C)c4ccc(C#N)cn4)cc23)cc1` [Example 75, N-(5-cyanopyridin-2-yl)-N-methyl-3-(4-(methylcarbamoyl)phenyl)pyrazolo[1,5-a]pyridine-5-carboxamide], for which the values for the EC50 in experiment [1] and in experiment [2] were 4 nM and 2.25 nM, respectively.

In the case of `CN(C(=O)c1ccc(C#N)cc1)c1ccn2ncc(-c3ccc(C(F)(F)F)cc3)c2c1` [Example 28, 4-cyano-N-methyl-N-(3-(4-(trifluoromethyl)phenyl)pyrazolo[1,5-a]pyridine-5-yl)benzamide], the EC50 in experiment [1] turned out to be 7 nM; in experiment [2] it was 23.2 nM.

Consider `CN(C(=O)c1ccn2ncc(-c3ccc(C(N)=O)cc3)c2c1)c1ccc(C#N)cc1` [Example 19, 3-(4-carbamoylphenyl)-N-(4-cyanophenyl)-N-methylpyrazolo[1,5-a]pyridine-5-carboxamide], for which the values for the EC50 in experiment [1] and in experiment [2] were 1 nM and 4.3 nM, respectively.

With `CN(C(=O)c1ccn2ncc(-c3ccc(C(N)=O)cc3)c2c1)c1ccc(F)cc1` [Example 20, 3-(4-carbamoylphenyl)-N-(4-fluorophenyl)-N-methylpyrazolo[1,5-a]pyridine-5-carboxamide], the EC50 in experiment [1] turned out to be 9 nM; in experiment [2], 13.5 nM.

The values are drawn from patent publication US8871754B2, “Compounds and compositions for the treatment of parasitic diseases” (IRM LLC, priority 2012, dated 2014).
